Laboratory results published in paper PMC12612594, “Nuclear Magnetic Resonance‐based fragment screen of the E3 ligase Fem‐1 homolog B” (Protein Science : A Publication of the Protein Society, 2025).

Assays:
FEM1B [1] = experiment: LC-coupled tandem mass spectrometry, site of covalent attachment; type: binding; settings: FEM1B incubated with five times the concentration of compound for 48 h, trypsin digest, LC-MS/MS
Procedure: To assess the potential for covalent binding of VU0416476 to FEM1B, we used LC‐coupled tandem mass spectrometry to identify the site of covalent attachment. After FEM1B was incubated with five times the concentration of VU0416476 for 48 h, the protein was digested with sequencing‐grade trypsin, and peptides were analyzed by LC‐MS/MS.
FEM1B incubated with five times the concentration of VU0416476 were brought to a final concentration of 5% SDS, reduced with 20 mM DTT at 55°C for 20 min, and alkylated with 40 mM iodoacetamide for 30 min in the dark at room temperature. The samples were then prepared for digestion on S‐Trap™ micro spin columns (ProtiFi) following the manufacturer's instructions. Aqueous phosphoric acid was added to a final concentration of 2.5%, followed by the addition of 90% methanol containing 100 mM TEAB (S‐Trap binding/wash buffer) at 6× the volume. Samples were loaded onto S‐Trap columns and centrifuged at 4000g. Columns were washed four times with binding/wash buffer. […] Eluted peptides were dried in a speed‐vac concentrator, reconstituted in aqueous 0.2% formic acid, and analyzed by LC‐coupled tandem mass spectrometry (LC–MS/MS) using similar methods to those described in the work of Howard et al. ([2024]). […] Peptides were eluted at a flow rate of 350 nL/min, using a 90‐min gradient, and were analyzed on an Orbitrap Exploris 480 mass spectrometer (Thermo Scientific). […]

FEM1B‐12 = FEM1B‐12 (Homo sapiens, UniProt Q9UK73); experiment: NMR titration (1H-13C-methyl SOFAST HMQC) of fragments; type: binding; settings: for Kd: fragment 0.0625–2 mM, 100 μM 13C-methyl labeled FEM1B‐12, 310 K, Hill's equation model, read-out: Kd (dissociation constant by NMR titration); for higher affinity than the reference molecule VU0417412: ratio of KD values vs VU0417412
FEM1B‐12, sequence (Q9UK73 1-356): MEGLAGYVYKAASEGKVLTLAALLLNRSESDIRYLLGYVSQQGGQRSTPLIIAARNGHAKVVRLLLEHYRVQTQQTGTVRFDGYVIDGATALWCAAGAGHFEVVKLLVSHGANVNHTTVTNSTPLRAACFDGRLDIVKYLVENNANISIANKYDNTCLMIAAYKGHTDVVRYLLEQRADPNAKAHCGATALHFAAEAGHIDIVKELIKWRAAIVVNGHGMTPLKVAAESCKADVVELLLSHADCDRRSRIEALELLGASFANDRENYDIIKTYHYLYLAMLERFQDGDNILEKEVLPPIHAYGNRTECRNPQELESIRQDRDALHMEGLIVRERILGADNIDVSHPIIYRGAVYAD
Procedure: Using ^1H‐^13C‐methyl SOFAST HMQC NMR, 4608 structurally diverse fragments were prepared as 12‐fragment mixtures at the concentration of 800 μM per compound and screened against 100 μM FEM1B‐12. The spectra of FEM1B in the presence of the fragment mixtures were compared to the spectrum of ligand‐free FEM1B to identify fragment hits. Twelve‐fragment mixture hits were subsequently deconvoluted by testing individual fragments for binding. In total, 18 fragment hits were identified ([…]) in the screen. Three chemical shift patterns were observed among the 18 fragment hits (Figure 2), with pattern three having two sub‐patterns with the same residues shifting in different directions. […] The dissociation constants of the fragments were determined by NMR titration using fragment concentrations ranging from 0.0625 to 2 mM (Figure 2) (Henning et al., [2022]).
All ^15N‐TROSY NMR experiments were carried out at 310 K using a 900 MHz Bruker Avance III spectrometer equipped with a TXI/TCI CryoProbe and a Bruker SampleJet. All 1H‐13C‐SOFAST HMQC NMR experiments were carried out at 310 K using a 600 MHz Bruker AV‐III‐600 Spectrometer with a TCI CryoProbe and a Bruker SampleJet. Two‐dimensional ^1H‐^15 TROSY spectra of 150 μM FEM1B‐12 and ^1H‐^13C‐SOFAST HMQC spectra of 100 μM FEM1B‐12 were recorded using 30‐min acquisition times and analyzed using Topspin 4.1.4 (Bruker).
HMQC titration experiments were used to determine binding affinity of the fragment hits identified from the screen. The changes in ^1H‐^13C chemical shifts of selectively labeled sidechain resonances upon the addition of increasing concentrations of the fragments (0.0625–2 mM) were analyzed. The binding affinities (KDs) of the fragments were calculated using the Hill's equation model in Prism 10 (GraphPad).

FEM1B [2] = test system: FEM1B; design: method as in Henning et al., [2022]; settings: ref Henning et al., [2022]; cited from earlier work
recombinant mouse FEM1B = test system: recombinant mouse FEM1B; design: method as in Henning et al., [2022]; settings: TAMARA‐FNIP1 degron, ref Henning et al., [2022], read-out: 50% inhibitory concentration (IC50); cited from earlier work

Row | Kd (FEM1B‐12) [µM] | SMILES | further results
1 |  | CC(C)(C)n1ncc(Cl)c(Cl)c1=O [VU0416476] | site of covalent attachment (FEM1B [1]): covalently binds to Cys186
2 | 80 | CC(=O)c1cccc(NC(=O)c2cccs2)c1 [VU0013947] | higher affinity than the reference molecule VU0417412 (FEM1B‐12): 3.5 ×
3 | 260 | CC(C)c1ccc(NC(=O)c2cnccn2)cc1 [VU0412674] | 
4 | 1130 | O=C(O)c1cccc(N2CCCC2=O)c1 [VU0081201] | 
5 |  | N#CCCN(C(=O)CCl)c1ccc2c(c1)OCCO2 [EN106] | site of covalent binding (FEM1B [2]): covalently bind to Cys186; IC50 (recombinant mouse FEM1B): 2.2 µM
6 | 280 | O=C(Nc1ccc(F)cc1)c1cccs1 [VU0417412] | 
7 | 100 | COCc1ccc(NC(=O)c2cccs2)cc1 [VU0175318] | higher affinity than the reference molecule VU0417412 (FEM1B‐12): 2.8 ×
8 | 960 | CC(C)(C)N1C(=O)c2ccc(C(=O)O)cc2C1=O [VU0023775] | 
